Results on 5 compounds are retold here after ChEMBL document CHEMBL4152191, “New potent and selective A1 adenosine receptor antagonists as potential tools for the treatment of gastrointestinal diseases” (Eur J Med Chem, 2018).

In experiment [1] the target is T1, Adenosine receptor A1 (Mus musculus) (UniProt Q60612).
T1 sequence (whole entry): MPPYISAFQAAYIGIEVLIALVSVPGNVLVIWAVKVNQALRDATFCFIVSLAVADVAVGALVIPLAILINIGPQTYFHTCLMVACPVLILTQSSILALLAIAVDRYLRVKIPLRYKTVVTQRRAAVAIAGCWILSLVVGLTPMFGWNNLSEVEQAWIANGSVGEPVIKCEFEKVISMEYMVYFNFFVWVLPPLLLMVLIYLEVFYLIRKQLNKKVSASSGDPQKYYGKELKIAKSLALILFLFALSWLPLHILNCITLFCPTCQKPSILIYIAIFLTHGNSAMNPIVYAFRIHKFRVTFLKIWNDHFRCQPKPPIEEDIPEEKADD
Briefly: Activity at adenosine A1 receptor in BALB/C mouse ileum assessed as effect on amplitude of rhythmic spontaneous contractions at 1 uM after 1 hr. The format is functional.

Experiment [2] is filed under the species Homo sapiens. Briefly: Selectivity index, ratio of Ki for recombinant human adenosine A2A receptor to Ki for recombinant human adenosine A1 receptor.
The target in experiment [3] is T2, Adenosine receptor A1 (Homo sapiens, UniProt P30542).
T2 sequence (P30542 whole entry): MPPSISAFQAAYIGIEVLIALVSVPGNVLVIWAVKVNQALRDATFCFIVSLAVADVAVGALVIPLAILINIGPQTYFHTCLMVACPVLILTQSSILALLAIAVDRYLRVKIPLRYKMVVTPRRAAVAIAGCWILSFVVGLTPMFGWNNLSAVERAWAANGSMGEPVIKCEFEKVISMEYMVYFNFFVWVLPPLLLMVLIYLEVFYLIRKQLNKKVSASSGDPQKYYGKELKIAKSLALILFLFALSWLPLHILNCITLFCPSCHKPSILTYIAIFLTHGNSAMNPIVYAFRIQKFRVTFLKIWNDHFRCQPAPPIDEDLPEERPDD
Briefly: Displacement of [3H]CCPA from recombinant human adenosine A1 receptor transfected in CHO cell membranes after 3 hrs by microbeta scintillation counting analysis.

Experiment [4] addresses T1, Adenosine receptor A1 (Mus musculus). Briefly: Activity at adenosine A1 receptor in BALB/C mouse ileum assessed as effect on frequency of rhythmic spontaneous contractions at 1 uM after 1 hr. The format is functional.
The target in experiment [5] is Adenosine receptors; A1 & A3 (Homo sapiens) (UniProt P30542+P0DMS8). Briefly: Selectivity index, ratio of Ki for recombinant human adenosine A3 receptor to Ki for recombinant human adenosine A1 receptor.
In the next experiment the target is T3, Adenosine receptor A2b (Homo sapiens, UniProt P29275).
T3 sequence (P29275 whole entry): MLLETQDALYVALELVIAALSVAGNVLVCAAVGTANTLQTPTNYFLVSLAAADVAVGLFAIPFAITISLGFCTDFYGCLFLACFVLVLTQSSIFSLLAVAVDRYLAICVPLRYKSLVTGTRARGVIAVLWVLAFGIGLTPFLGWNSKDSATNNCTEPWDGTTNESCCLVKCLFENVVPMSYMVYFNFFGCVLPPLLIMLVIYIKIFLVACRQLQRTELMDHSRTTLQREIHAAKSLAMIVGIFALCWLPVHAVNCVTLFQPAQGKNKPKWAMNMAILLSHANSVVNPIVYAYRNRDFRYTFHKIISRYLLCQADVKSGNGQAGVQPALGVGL
Briefly: Antagonist activity at recombinant human adenosine A2B receptor expressed in CHO cells assessed as inhibition of NECA-induced adenylyl cyclase activity after 20 mins by [alpha-32P]ATP assay. The format is functional, cell-based.

In another experiment the target is Adenosine receptor A2a (Homo sapiens, UniProt P29274). Briefly: Displacement of [3H]NECA from recombinant human adenosine A2A receptor transfected in CHO cell membranes after 3 hrs by microbeta scintillation counting analysis.
For a further experiment, the target named is T4, Adenosine receptor A3 (Homo sapiens, UniProt P0DMS8).
T4 sequence (P0DMS8 whole entry): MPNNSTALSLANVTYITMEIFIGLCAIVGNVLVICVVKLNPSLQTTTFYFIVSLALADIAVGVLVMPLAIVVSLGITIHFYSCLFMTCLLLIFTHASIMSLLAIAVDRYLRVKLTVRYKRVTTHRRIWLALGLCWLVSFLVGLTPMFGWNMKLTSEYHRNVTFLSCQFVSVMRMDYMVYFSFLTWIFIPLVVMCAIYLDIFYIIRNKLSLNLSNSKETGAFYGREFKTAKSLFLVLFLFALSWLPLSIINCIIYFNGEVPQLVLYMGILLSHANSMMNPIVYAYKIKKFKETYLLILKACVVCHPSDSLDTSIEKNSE
Briefly: Displacement of [3H]NECA from recombinant human adenosine A3 receptor transfected in CHO cell membranes after 3 hrs by microbeta scintillation counting analysis.

Experiment [6] deals with T2, Adenosine receptor A1. Briefly: Antagonist activity at recombinant human adenosine A1 receptor transfected in CHO cells assessed as inhibition of CCPA-induced cAMP accumulation preincubated for 10 mins followed by CCPA addition by GloSensor cAMP assay. The format is functional, cell-based.
Experiment [7] is filed under the species Homo sapiens. Briefly: Selectivity index, ratio of Ki for recombinant human adenosine A2B receptor to Ki for recombinant human adenosine A1 receptor.
Experiment [8] has as its target T1, Adenosine receptor A1 (Mus musculus). Briefly: Antagonist activity at adenosine A1 receptor in BALB/C mouse ileum assessed as reversal of CCPA-induced reduction in rhythmic spontaneous contractions at 1 uM after 1 hr. The format is functional.
Experiment [9] has the same target. Briefly: Antagonist activity at adenosine A1 receptor in BALB/C mouse ileum assessed as reversal of 0.1 uM CCPA-induced reduction in rhythmic spontaneous contractions by measuring tissue response at 1 uM after 1 hr (reference value: 65%). The format is functional. Further details: scale not given: the % may be the effect or the level left.
Experiment [10] has the same target. Briefly: Antagonist activity at adenosine A1 receptor in BALB/C mouse ileum assessed as reversal of 1 uM CCPA-induced reduction in rhythmic spontaneous contractions by measuring tissue response at 1 uM after 1 hr (reference value: 20%). Also noted: scale not given: the % may be the effect or the level left. The format is functional.
The target is the same in experiment [11]. Briefly: Reversible antagonist activity at adenosine A1 receptor in BALB/C mouse ileum assessed as reversal of CCPA-induced reduction in rhythmic spontaneous contractions at 1 uM incubated for 1 hr measured after compound wash out. The format is functional.

Structures are written as SMILES. Activity calls are given as the source filed them. No cut-off for these calls is given here.

Sequence of Adenosine receptor A2a (P29274 whole entry): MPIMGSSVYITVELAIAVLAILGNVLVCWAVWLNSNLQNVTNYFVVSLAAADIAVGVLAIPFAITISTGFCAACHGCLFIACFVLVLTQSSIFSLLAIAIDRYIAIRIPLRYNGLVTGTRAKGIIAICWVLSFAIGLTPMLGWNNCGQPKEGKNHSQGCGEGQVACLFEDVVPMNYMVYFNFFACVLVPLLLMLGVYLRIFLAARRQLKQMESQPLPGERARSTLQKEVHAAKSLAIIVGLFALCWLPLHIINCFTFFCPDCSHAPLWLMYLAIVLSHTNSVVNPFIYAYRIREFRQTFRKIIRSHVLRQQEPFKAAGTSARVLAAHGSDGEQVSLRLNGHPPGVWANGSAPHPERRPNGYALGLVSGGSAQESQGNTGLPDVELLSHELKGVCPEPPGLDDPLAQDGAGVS

As to `Cn1c(-c2ccc(O)cc2)nc2c(NC3CCCC3)ncnc21`, the result in experiment [1] and in experiment [4] was inactive. The Ratio Ki was determined as 31 in the experiment filed under Homo sapiens [2], 31 in experiment [5] and 1050 in the experiment filed under Homo sapiens [7]. The Ki at Adenosine receptor A1 [3] turned out to be 0.017 µM; on Adenosine receptor A2b, 17.8 µM; at Adenosine receptor A2a it was 0.532 µM; on Adenosine receptor A3, 0.521 µM. Besides, the IC50 on Adenosine receptor A1 [6] was determined as 0.052 µM. For the same compound, the Kb in experiment [8] is 0.066 µM.
`Cn1c(-c2ccccc2)nc2c(NC3CCCC3)ncnc21`: the result in experiment [1] and in experiment [4] was inactive. For the same compound, the Ratio Ki in the experiment listed under Homo sapiens [2] was found to be 178; in experiment [5] it was 302; in the experiment listed under Homo sapiens [7], 3040. The Activity was 100% in experiment [9] and 75% in experiment [10]. In addition, the Ki was determined as 0.0028 µM on Adenosine receptor A1 [3], 8.51 µM at Adenosine receptor A2b, 0.498 µM at Adenosine receptor A2a and 0.846 µM at Adenosine receptor A3. Further, in [11], the inhibition result was “Active”. Also, the IC50 at Adenosine receptor A1 [6] worked out at 0.014 µM. Moreover, the Kb in experiment [8] came to 0.017 µM.
As to `Cc1ccc(-c2nc3c(NC4CCCC4)ncnc3n2C)cc1`, the outcome in experiment [1] and in [4] was inactive. For the same compound, the Ratio Ki in the experiment filed under Homo sapiens [2] is 225; in experiment [5], 60; in the experiment listed under Homo sapiens [7], over 3750. Further, the Ki is 0.008 µM at Adenosine receptor A1 [3], over 30 µM at Adenosine receptor A2b, 1.8 µM on Adenosine receptor A2a and 0.48 µM on Adenosine receptor A3. For the same compound, the half-maximal inhibitory concentration (IC50) at Adenosine receptor A1 [6] was found to be 0.061 µM. For the same compound, the Kb in experiment [8] worked out at 0.177 µM.
Turning to `Cn1c(-c2ccc(F)cc2)nc2c(NC3CCCC3)ncnc21`, the result in experiment [1] and in [4] was inactive. In addition, the Ratio Ki in the experiment listed under Homo sapiens [2] was 387; in [5], 184; in the experiment listed under Homo sapiens [7], over 4840. Further, the Ki on Adenosine receptor A1 [3] was 0.0062 µM; at Adenosine receptor A2b, over 30 µM; on Adenosine receptor A2a it was 2.4 µM; on Adenosine receptor A3 it was 1.14 µM. Moreover, at Adenosine receptor A1 [6], the IC50 is 0.032 µM. In experiment [8], the Kb amounted to 0.043 µM.
For `Cc1cccc(-c2nc3c(NC4CCCC4)ncnc3n2C)c1`, the outcome in experiment [1] and in experiment [4] was inactive. In addition, the results for the Ratio Ki (in the experiment filed under Homo sapiens [2]; in experiment [5]; in the experiment listed under Homo sapiens [7]) were 73, 82 and 973, respectively. Further, the Ki worked out at 0.0062 µM on Adenosine receptor A1 [3], 6.03 µM on Adenosine receptor A2b, 0.45 µM on Adenosine receptor A2a and 0.51 µM on Adenosine receptor A3. In addition, at Adenosine receptor A1 [6], the IC50 turned out to be 0.043 µM. Also, the Kb in experiment [8] amounted to 0.033 µM.
